For 34 compounds, IC50 results are on record in patent publication US20260042747A1, “KIT INHIBITORS, COMPOUNDS, PHARMACEUTICAL COMPOSITIONS, AND METHODS OF USE THEREOF” (Alivexis, Inc., priority 2022, published 2026).

Test [1] deals with recombinant human KIT tyrosine kinase protein (Homo sapiens (Human), UniProt P10721). The test can be described thus: KIT tyrosine kinase assay (ADP-Glo). Format: biochemical. On the technique in general: ADP-Glo turns the ADP formed in a reaction into a luminescent signal.
recombinant human KIT tyrosine kinase protein, sequence (P10721 546-976): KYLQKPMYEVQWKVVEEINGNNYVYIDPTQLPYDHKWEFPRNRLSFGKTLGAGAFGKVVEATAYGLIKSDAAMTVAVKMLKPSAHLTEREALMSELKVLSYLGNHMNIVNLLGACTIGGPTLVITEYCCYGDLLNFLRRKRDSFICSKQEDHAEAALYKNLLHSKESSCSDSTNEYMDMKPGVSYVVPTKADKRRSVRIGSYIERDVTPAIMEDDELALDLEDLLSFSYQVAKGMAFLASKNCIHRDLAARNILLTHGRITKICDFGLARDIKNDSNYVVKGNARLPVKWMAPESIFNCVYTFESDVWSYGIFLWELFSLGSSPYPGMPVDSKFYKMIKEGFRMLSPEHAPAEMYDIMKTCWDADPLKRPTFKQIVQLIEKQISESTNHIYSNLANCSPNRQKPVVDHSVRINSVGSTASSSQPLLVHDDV
A further test has as its system GIST-T1 cells. As to the kind of experiment: GIST cell proliferation assay. Format: cell-based, human. The following applies: Homo sapiens, GISTT1, 72 h; GIST-T1 cells (mutation in exon 11 of KIT), CellTiter Glo, 3 days; read-out: GIST-T1 IC50. From the text:
Gastrointestinal stromal tumors (GIST) are the most common adult sarcomas and the majority (85-90%) of GIST cases are caused by oncogenic mutations in the receptor tyrosine kinases (RTKs), KIT or PDGFRA, which result in constitutive activation of these receptors. Human GIST-derived cell line GIST-Ti which harboring a mutation in exon 11 of KIT was used for the measurement of inhibitory potency of the compounds.
GIST-T1 cells were purchased from Cosmo Bio (Tokyo, Japan) and cultured in 10% FBS containing DMEM. The assay was performed in 96-well plates and the IC50 of each compound was determined by CellTiter Glo Assay reagent and Victor X5 Multilabel Counter. Cells were seeded at a density of 2000 cells/90 μL/well in 96-well plates. Compound dilution, cell treatment and determination of IC50 were performed as described in the assay methods of M-07e Cell Proliferation Assay.
On the technique in general: Cellular ATP, detected with luciferase, serves as a proxy for viable cell number.

Another test has as its system M-07e cells. As to the kind of experiment: SCF-dependent M-07e cell proliferation assay. Format: cell-based, human. Particulars: Homo sapiens, M-07e, 72 h, read-out: M-07e IC50. How it is done:
SCF-dependent cell proliferation assay was developed to measure the inhibitory potency of the compounds in M-07e cells, which express wild-type human KIT protein. The assay was performed in 96-well plates and the IC50 of each KIT inhibitor was determined by CellTiter Glo Assay reagent and Victor X5 Multilabel Counter (Perkin Elmer).
M-07e cells were purchased from AcceGen Biotechnology. Cells were maintained with M-07e Growth medium: RPMI-1640 containing 20% FBS, 100 U/mL penicillin and 100 microgram/mL streptomycin, 10 ng/mL rhGM-CSF, 10 ng/mL rhSCF. M-07e cells were seeded at a density of 5000 cells/90 μL/well in 96-well plates. Test compounds were dissolved in 100% DMSO to make 20 mM stock solution and serially diluted 1:3 with 100% DMSO to make an 11-point dilution series with concen-trations from […] to 0.024 μM. The serially diluted compounds were then each diluted 1:50 with culture medium to obtain assay compound solutions containing 2% DMSO. Ten μL of assay compound solutions were added to the 90 μL of culture cell suspension in the 96-well plate, with a final DMSO concentration of 0.2%. The plates were then incubated in a 5% CO2 incubator at 37° C. for 3 days. To obtain Day Zero Controls for background calculation, cells were seeded at 5000 cells/100 μL in a new 96-well plate and processed on the same day. Both Day Zero controls and 3 day culture plates were then treated as follows. 100 μL of CellTiter Glo Assay reagent was added to each well and the plate was incubated at room temperature for 15 min on a shaker at 200-300 RPM. Then 100 μL of cell lysate samples were transferred to white wall 96-well plates and luminescence was measured by a plate reader. The luminescence of Day Zero Control was subtracted from the luminescence intensity of 3 day culture readings. The assay control for this experiment was cells treated with 0.2% DMSO in culture medium and wells with 100 μL of culture medium (0.2% DMSO without cells) were used as the blank for data analysis.
The IC50 value of each compound was determined by using % inhibition by nor-malizing inhibition in DMSO treated control wells to 0% using the following formula method: […]
Plot percent inhibition in proliferation of triplicates against the respective concen-trations of compound and fit the dose response curve using the sigmoidal dose response equation to generate the IC50 in GraphPad Prism 8 software.

Where [2] appears, read: SCF-dependent M-07e cell proliferation, 3 days, CellTiter Glo.

Where a name gives a salt, the structure may show the parent alone. Read-outs that look alike come from different tables or passages of the source.

By IC50 is commonly meant the concentration needed to halve the response being measured. Take `Cn1c(=O)[nH]c2cc(C(=O)NCc3ccc(Oc4ccccc4F)nc3)ccc21` [Compound 1, N-((6-(2-Fluorophenoxy)pyridin-3-yl)methyl)-1-methyl-2-oxo-2,3-dihydro-1H-benzimid azole-5-carboxamide]: the IC50 (in test [1] (Table 98); in the test with GIST-T1 cells) was 57 nM each time.

As for `Cn1c(=O)[nH]c2cc(C(=O)NCc3ccc(Oc4cccc(F)c4)nc3)ccc21` [Example 33], the concentration for half-maximal inhibition (IC50) (in test [1] (Table 98); in the test with GIST-T1 cells) was 78 nM each time.

Turning to `Cn1c(=O)[nH]c2cc(C(=O)NCc3ccc(OC4CC(C(F)(F)F)C4)nc3)ccc21` (centres unmarked) [Compound 103, 1-Methyl-2-oxo-N-((6-(3-(trifluoromethyl)cyclobutoxy)pyridin-3-yl)methyl)-2,3-dihyd ro-1H-benzimidazole-5-carboxamide], the IC50 came to 42 nM in test [1] (Table 99) and 819 nM in the test on M-07e cells (setting [2]).

As to `CC(c1ccccc1)N(C)c1ccc(CNC(=O)c2ccc3c(c2)[nH]c(=O)n3C)cn1` (centres unmarked) [Example 82], the IC50 in test [1] (Table 98) was 75 nM; with M-07e cells (setting [2]) it was 730 nM.

For the compound `CN(Cc1ccccc1)c1ccc(CNC(=O)c2ccc3c(c2)[nH]c(=O)n3C)cn1` [Example 66], the IC50 turned out to be 33 nM in test [1] (Table 98) and 79 nM in the test with M-07e cells.

Regarding `CN(c1ccc(CNC(=O)c2ccc3c(c2)[nH]c(=O)n3C)cn1)C12CC(C(F)(F)F)(C1)C2` [Example 80], the half-maximal inhibitory concentration (IC50) is 31 nM in test [1] (Table 98) and 240 nM in the test on M-07e cells.

In the case of `CN(Cc1ccccn1)c1ccc(CNC(=O)c2ccc3c(c2)[nH]c(=O)n3C)cn1` [Example 76], the IC50 in test [1] (Table 98) was 86 nM; in the test with M-07e cells, 1600 nM.

For the compound `CCN(c1ccc(F)cc1)c1ccc(CNC(=O)c2ccc3c(c2)[nH]c(=O)n3C)cn1` [Example 58], the IC50 amounted to 21 nM in test [1] (Table 98) and 2400 nM with M-07e cells.

For `CC(c1ccc(F)cc1)c1ccc(CNC(=O)c2ccc3c(c2)[nH]c(=O)n3C)cn1` (centres unmarked) [Compound 15, N-((6-(1-(4-Fluorophenyl)ethyl)pyridin-3-yl)methyl)-1-methyl-2-oxo-2,3-dihydro-1H-be nzimidazole-5-carboxamide], the IC50 is 67 nM in test [1] (Table 98) and 2200 nM in the test on M-07e cells (setting [2]).

Regarding `CN(c1ccc(CNC(=O)c2ccc3c(c2)[nH]c(=O)n3C)cn1)c1ccccc1F` [Example 59], the 50% inhibitory concentration (IC50) was determined as 14 nM in test [1] (Table 98) and 190 nM with M-07e cells.

As for `CC(C1CC1)N(C)c1ccc(CNC(=O)c2ccc3c(c2)[nH]c(=O)n3C)cn1` (centres unmarked) [Example 83], the IC50 in test [1] (Table 98) was determined as 41 nM; in the test with M-07e cells, 300 nM.

As for `CN(c1ccc(CNC(=O)c2ccc3c([nH]c(=O)n3C)c2F)cn1)C1CCC(F)(F)C1` (centres unmarked) [Example 147], the values for the half-inhibitory concentration (IC50) (in test [1] (Table 99); with M-07e cells (setting [2])) were 23 nM and 440 nM, respectively.

Regarding `Cn1c(=O)[nH]c2cc(C(=O)NCc3cnc4c(c3)CCN4C3CCC(F)(F)CC3)ccc21` [Compound 18, N-((1-(4,4-difluorocyclohexyl)-2,3-dihydro-1H-pyrrolo[2,3-b]pyridin-5-yl)methyl)-1-met hyl-2-oxo-2,3-dihydro-1H-benzimidazole-5-carboxamide], the IC50 in test [1] (Table 98) is 57 nM; with M-07e cells (setting [2]), 210 nM.

For the compound `CN(CCC(F)(F)F)c1ccc(CNC(=O)c2ccc3c(c2)[nH]c(=O)n3C)cn1` [Example 67], the IC50 in test [1] (Table 98) is 25 nM; in the test with M-07e cells, 220 nM.

As for `Cn1c(=O)[nH]c2cc(C(=O)NCc3cnc4c(c3)CCN4c3ccccc3F)ccc21` [Compound 19, N-((1-(2-Fluorophenyl)-2,3-dihydro-1H-pyrrolo[2,3-b]pyridin-5-yl)methyl)-1-methyl-2-o xo-2,3-dihydro-1H-benzimidazole-5-carboxamide], the figures for the IC50 (in test [1] (Table 98); in the test with M-07e cells (setting [2])) were 60 nM and 160 nM, respectively.

On to `CN(c1ccc(CNC(=O)c2cc(F)c3[nH]c(=O)[nH]c3c2)cn1)C1CC(F)(F)C1` [Example 144], for which the IC50 in test [1] (Table 99) is 57 nM; with M-07e cells (setting [2]) it was 3560 nM.

Turning to `CN(c1ccc(F)cc1)c1ccc(CNC(=O)c2ccc3c(c2)[nH]c(=O)n3C)cn1` [Compound 9, N-((6-((4-Fluorophenyl)(methyl)amino)pyridin-3-yl)methyl)-1-methyl-2-oxo-2,3-dihydro-1H-benzimidazole-5-carboxamide trifluoroacetate], the IC50 came to 34 nM in test [1] (Table 98) and 610 nM with M-07e cells (setting [2]).

In the case of `Cn1c(=O)[nH]c2cc(C(=O)NCc3ccc(N4CCCC4(C)C)nc3)ccc21` [Example 97], the concentration for half-maximal inhibition (IC50) in test [1] (Table 98) turned out to be 34 nM; in the test with M-07e cells, 240 nM.

With `CN(Cc1ccccc1F)c1ccc(CNC(=O)c2ccc3c(c2)[nH]c(=O)n3C)cn1` [Example 74], the IC50 in test [1] (Table 98) was 25 nM; with M-07e cells, 110 nM.

As for `CN(c1ccc2c(c1)COC2)c1ccc(CNC(=O)c2ccc3c(c2)[nH]c(=O)n3C)cn1` [Example 119], the 50% inhibitory concentration (IC50) in test [1] (Table 99) is 40 nM; with M-07e cells, 423 nM.

As for `CN(Cc1cccc(F)c1)c1ccc(CNC(=O)c2ccc3c(c2)[nH]c(=O)n3C)cn1` [Example 73], the 50% inhibitory concentration (IC50) came out at 27 nM in test [1] (Table 98) and 98 nM in the test on M-07e cells.

For the compound `Cn1c(=O)[nH]c2cc(C(=O)NCc3cnc4c(c3)CCN4c3c(F)cccc3F)ccc21` [Example 102], the IC50 turned out to be 55 nM in test [1] (Table 99) and 270 nM in the test with M-07e cells.

Consider `CN(c1ncc(CNC(=O)c2ccc3c(c2)[nH]c(=O)n3C)s1)C1CCC(F)(F)CC1` [Example 90], for which the IC50 in test [1] (Table 98) stood at 48 nM; in the test on M-07e cells, 1800 nM.

`CN(c1ccc(CNC(=O)c2ccc3c(c2)[nH]c(=O)n3C)cn1)[C@@H]1CC[C@H](F)C1` [Example 134]: the IC50 was 38 nM in test [1] (Table 99) and 62 nM in the test with M-07e cells.

For the compound `Cn1c(=O)[nH]c2cc(C(=O)NCc3ccc(Oc4ccccc4F)nc3)c(F)cc21` [Compound 3, 6-Fluoro-N-((6-(2-fluorophenoxy)pyridin-3-yl)methyl)-1-methyl-2-oxo-2,3-dihydro-1H-benzimidazole-5-carboxamide trifluoroacetate], the IC50 in test [1] (Table 98) was 26 nM; with M-07e cells (setting [2]) it was 180 nM.

For the compound `CN(c1ccc(CNC(=O)c2ccc3c(c2)[nH]c(=O)n3C)cn1)C1CCCC(O)C1` (centres unmarked) [Example 104, N-((6-((3-Hydroxycyclohexyl)(methyl)amino)pyridin-3-yl)methyl)-1-methyl-2-oxo-2,3-d ihydro-1H-benzimidazole-5-carboxamide], the IC50 is 51 nM in test [1] (Table 99) and 7660 nM in the test on M-07e cells (setting [2]).

Consider `Cn1c(=O)[nH]c2cc(C(=O)NCc3ccc(Oc4cccc(F)c4F)nc3)ccc21` [Example 36], for which the IC50 is 50 nM in test [1] (Table 98) and 870 nM in the test on M-07e cells.

On to `CC(NC(=O)c1ccc2c(c1)[nH]c(=O)n2C)c1ccc(N(C)C(C)C)nc1` (centres unmarked) [Example 130], for which the IC50 in test [1] (Table 99) is 222 nM; in the test on M-07e cells (setting [2]) it was 1860 nM.

As for `Cn1c(=O)[nH]c2cc(C(=O)NCc3ccc(Nc4ccc(F)cc4)nc3)ccc21` [Example 57], the IC50 was 227 nM in test [1] (Table 98) and 7300 nM in the test with M-07e cells (setting [2]).

For the compound `CN(c1ccc(CNC(=O)c2ccc3c(c2)[nH]c(=O)n3C)cn1)[C@H]1C[C@@H]1C(F)(F)F` [Example 127], the IC50 was 47 nM in test [1] (Table 99) and 1320 nM with M-07e cells.

As to `CN(c1ccc(CNC(=O)c2cc(F)c3[nH]c(=O)[nH]c3c2)cn1)[C@H]1C[C@@H](C(F)(F)F)C1` [Example 142], the IC50 in test [1] (Table 99) is 18 nM; in the test with M-07e cells it was 278 nM.

As for `CN(c1ccc(CNC(=O)c2cc3[nH]c(=O)n(C)c3cc2F)cn1)C1CC(F)(F)C1` [Example 139], the IC50 in test [1] (Table 99) is 75 nM; in the test with M-07e cells (setting [2]) it was 636 nM.

Take `CN(c1ccc(CNC(=O)c2ccc3c(c2)[nH]c(=O)n3C)cn1)c1cccc(F)c1F` [Example 61]: the IC50 in test [1] (Table 98) was 56 nM; with M-07e cells, 760 nM.

On to `CN(c1ccc(CNC(=O)c2ccc3c(c2)[nH]c(=O)n3C)cn1)C1Cc2ccccc2C1` [Example 120], for which the IC50 in test [1] (Table 99) came out at 45 nM; with M-07e cells, 206 nM.
